Laboratory results taken from the NIST ThermoML archive (doi:10.1021/acs.jced.7b00135).
“And” between values parts separate entries of the source, which are not always exact repeats. Equal values may be shown once. ± gives the expanded uncertainty stated by the source.

Legend:
[1] = wn = mass fraction of the nth substance listed; conditions: 100 kPa, Liquid; for viscosity: Capillary tube (Ostwald / Ubbelohde) method; for mass density: Vibrating tube method
[2] = Liquid, Closed cell (Static) method

O=S(=O)([N-]S(=O)(=O)C(F)(F)F)C(F)(F)F.[Li+] [lithium bis((trifluoromethyl)sulfonyl)amide] + O
[1]
Conditions | mass density, 298.15 K [kg/m3] | mass density, 323.15 K [kg/m3] | mass density, 348.15 K [kg/m3] | mass density, 373.15 K [kg/m3] | viscosity, 298.15 K [mPa·s] | viscosity, 323.15 K [mPa·s] | viscosity, 348.15 K [mPa·s] | viscosity, 373.15 K [mPa·s]
w1 = 0.2739 | 1160 ± 1 | 1148 ± 1 | 1131 ± 1 | 1109 ± 1 | 1.54 ± 0.08 | 0.88 ± 0.04 | 0.59 ± 0.03 | 0.48 ± 0.02
w1 = 0.4871 | 1325 ± 1 | 1304 ± 1 | 1282 ± 1 | 1258 ± 1 | 2.74 ± 0.14 | 1.5 ± 0.08 | 1 ± 0.05 | 0.68 ± 0.03
w1 = 0.6633 | 1493 ± 1 | 1467 ± 1 | 1440 ± 1 | 1401 ± 1 | 5.34 ± 0.27 | 2.83 ± 0.14 | 1.82 ± 0.09 | 1.54 ± 0.08
w1 = 0.8024 | 1654 ± 1 | 1624 ± 1 | 1598 ± 1 | 1557 ± 1 | 18.23 ± 0.92 | 8.75 ± 0.44 | 5.2 ± 0.26 | 3.42 ± 0.17

O [water]
[2]
Conditions | vapor or sublimation pressure
274.15 K | 0.661 ± 0.031 kPa and 0.657 ± 0.055 kPa
278.15 K | 0.873 ± 0.069 kPa
279.48 K | 0.953 ± 0.031 kPa
283.15 K | 1.228 ± 0.095 kPa
286.16 K | 1.508 ± 0.031 kPa
291.39 K | 2.094 ± 0.032 kPa
293.14 K | 2.337 ± 0.032 kPa
293.15 K | 2.339 ± 0.18 kPa
296.31 K | 2.839 ± 0.032 kPa
296.32 K | 2.834 ± 0.032 kPa
298.81 K | 3.288 ± 0.032 kPa
301.37 K | 3.827 ± 0.033 kPa
303.15 K | 4.247 ± 0.33 kPa
303.57 K | 4.36 ± 0.033 kPa
307.73 K | 5.507 ± 0.034 kPa
308.26 K | 5.666 ± 0.034 kPa
312.87 K | 7.275 ± 0.036 kPa
313.07 K | 7.345 ± 0.035 kPa
313.15 K | 7.385 ± 0.57 kPa
314.62 K | 7.977 ± 0.036 kPa
318.13 K | 9.585 ± 0.038 kPa and 9.578 ± 0.038 kPa
322.99 K | 12.26 ± 0.041 kPa
323.1 K | 12.32 ± 0.041 kPa
323.15 K | 12.35 ± 0.96 kPa
323.17 K | 12.36 ± 0.041 kPa
328.14 K | 15.75 ± 0.045 kPa
328.88 K | 16.31 ± 0.045 kPa
333.15 K | 20.06 ± 0.051 kPa and 19.95 ± 1.5 kPa
343.15 K | 31.28 ± 0.066 kPa and 31.2 ± 2.4 kPa
353.15 K | 47.45 ± 0.091 kPa and 47.41 ± 3.7 kPa
363.15 K | 70.21 ± 0.13 kPa and 70.18 ± 5.4 kPa
373.15 K | 101.42 ± 1.5 kPa and 101.42 ± 7.9 kPa
383.15 K | 143.29 ± 1.5 kPa and 143.38 ± 11 kPa
393.15 K | 198.75 ± 1.5 kPa and 198.67 ± 15 kPa
403.15 K | 270.22 ± 1.6 kPa and 270.28 ± 21 kPa
413.15 K | 361.64 ± 1.6 kPa and 361.54 ± 28 kPa
423.15 K | 476.33 ± 1.7 kPa and 476.17 ± 37 kPa
433.15 K | 618.34 ± 1.8 kPa and 618.24 ± 48 kPa
443.15 K | 792.15 ± 1.9 kPa and 792.19 ± 61 kPa
453.15 K | 1002.7 ± 2.1 kPa and 1002.8 ± 78 kPa
463.15 K | 1255.2 ± 2.4 kPa and 1255.2 ± 97 kPa
468.15 K | 1398.9 ± 2.6 kPa
470.15 K | 1459.7 ± 2.6 kPa
471.15 K | 1491 ± 2.7 kPa and 1490.9 ± 120 kPa
